Each structure is given as a SMILES string. Where a name gives a salt, the structure may show the parent alone.

The Ki is a measure of affinity in units of concentration, obtained from inhibition or displacement. Low values mean tighter binding, high ones weaker binding.

In test [1] the target is 5-hydroxytryptamine receptor 1E (Homo sapiens, UniProt P28566).
The target of test [2] is 5-hydroxytryptamine receptor 2B (Homo sapiens, UniProt P41595).
Test [3] concerns the target 5-hydroxytryptamine receptor 4 (Homo sapiens, UniProt Q13639).
The target of test [4] is T1, 5-hydroxytryptamine receptor 1F (Homo sapiens, UniProt P30939).
T1 sequence (P30939 whole entry): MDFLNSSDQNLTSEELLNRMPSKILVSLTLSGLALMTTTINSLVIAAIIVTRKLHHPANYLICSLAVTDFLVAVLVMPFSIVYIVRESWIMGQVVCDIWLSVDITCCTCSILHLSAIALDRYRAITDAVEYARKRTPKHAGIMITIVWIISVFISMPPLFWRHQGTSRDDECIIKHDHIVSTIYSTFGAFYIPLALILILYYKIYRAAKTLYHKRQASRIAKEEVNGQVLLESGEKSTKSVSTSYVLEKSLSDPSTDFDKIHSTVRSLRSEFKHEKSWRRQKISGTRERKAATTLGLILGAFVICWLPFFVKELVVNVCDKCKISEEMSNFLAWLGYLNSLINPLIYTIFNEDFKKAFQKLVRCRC

Test [5] concerns the target T2, 5-hydroxytryptamine receptor 2C (Homo sapiens, UniProt P28335).
T2 sequence (P28335 whole entry): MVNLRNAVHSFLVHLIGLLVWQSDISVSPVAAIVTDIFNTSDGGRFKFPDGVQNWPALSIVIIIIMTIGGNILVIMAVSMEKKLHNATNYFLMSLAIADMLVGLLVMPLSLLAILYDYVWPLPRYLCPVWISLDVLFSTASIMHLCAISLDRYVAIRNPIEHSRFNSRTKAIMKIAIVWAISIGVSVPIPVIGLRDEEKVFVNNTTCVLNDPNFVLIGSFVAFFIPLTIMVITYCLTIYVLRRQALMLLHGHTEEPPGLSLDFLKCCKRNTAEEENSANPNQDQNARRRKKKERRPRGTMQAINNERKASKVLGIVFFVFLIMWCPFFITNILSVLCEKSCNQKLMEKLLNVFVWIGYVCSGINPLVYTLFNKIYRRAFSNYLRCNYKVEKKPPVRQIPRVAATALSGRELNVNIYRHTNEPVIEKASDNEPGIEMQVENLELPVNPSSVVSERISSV

In test [6] the target is 5-hydroxytryptamine receptor 6 (Homo sapiens, UniProt P50406).
Sequence of 5-hydroxytryptamine receptor 6 (P50406 whole entry): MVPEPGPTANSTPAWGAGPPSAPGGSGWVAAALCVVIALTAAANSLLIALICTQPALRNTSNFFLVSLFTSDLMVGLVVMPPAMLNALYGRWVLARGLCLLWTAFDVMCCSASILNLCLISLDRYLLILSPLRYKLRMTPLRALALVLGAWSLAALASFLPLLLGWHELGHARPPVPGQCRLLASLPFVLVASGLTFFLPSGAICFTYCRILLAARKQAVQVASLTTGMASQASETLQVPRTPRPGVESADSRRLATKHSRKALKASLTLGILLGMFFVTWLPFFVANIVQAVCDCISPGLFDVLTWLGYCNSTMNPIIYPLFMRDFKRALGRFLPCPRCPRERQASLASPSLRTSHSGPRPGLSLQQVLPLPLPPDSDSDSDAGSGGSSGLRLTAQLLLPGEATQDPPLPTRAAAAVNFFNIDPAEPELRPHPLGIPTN
Test [7] has as its target T3, Alpha-1B adrenergic receptor (Homo sapiens, UniProt P35368).
T3 sequence (P35368 whole entry): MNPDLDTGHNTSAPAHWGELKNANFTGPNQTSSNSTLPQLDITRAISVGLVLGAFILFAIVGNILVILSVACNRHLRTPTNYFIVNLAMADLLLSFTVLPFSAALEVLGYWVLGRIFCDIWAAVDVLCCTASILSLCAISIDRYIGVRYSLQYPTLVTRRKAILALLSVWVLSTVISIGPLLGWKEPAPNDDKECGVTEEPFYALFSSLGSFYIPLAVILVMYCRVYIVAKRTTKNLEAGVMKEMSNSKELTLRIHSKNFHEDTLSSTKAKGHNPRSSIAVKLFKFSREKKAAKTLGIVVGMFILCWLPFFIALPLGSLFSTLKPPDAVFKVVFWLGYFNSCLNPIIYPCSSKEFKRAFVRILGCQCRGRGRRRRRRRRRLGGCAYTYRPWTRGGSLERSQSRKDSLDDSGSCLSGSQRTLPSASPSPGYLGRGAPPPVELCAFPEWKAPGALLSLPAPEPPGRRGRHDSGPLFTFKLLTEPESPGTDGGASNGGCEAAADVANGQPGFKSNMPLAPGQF

Sequence of 5-hydroxytryptamine receptor 4 (Q13639 whole entry): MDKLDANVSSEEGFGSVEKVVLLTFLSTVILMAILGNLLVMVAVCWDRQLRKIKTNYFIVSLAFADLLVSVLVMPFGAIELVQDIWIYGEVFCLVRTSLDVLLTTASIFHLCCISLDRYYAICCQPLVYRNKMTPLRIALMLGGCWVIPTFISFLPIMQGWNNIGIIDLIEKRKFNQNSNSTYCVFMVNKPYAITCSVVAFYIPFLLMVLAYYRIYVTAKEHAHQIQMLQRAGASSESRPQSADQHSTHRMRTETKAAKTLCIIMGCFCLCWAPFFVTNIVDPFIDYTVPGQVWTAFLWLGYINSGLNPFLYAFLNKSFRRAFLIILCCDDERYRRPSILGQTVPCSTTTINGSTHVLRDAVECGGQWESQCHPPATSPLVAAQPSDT
Sequence of 5-hydroxytryptamine receptor 1E (P28566 whole entry): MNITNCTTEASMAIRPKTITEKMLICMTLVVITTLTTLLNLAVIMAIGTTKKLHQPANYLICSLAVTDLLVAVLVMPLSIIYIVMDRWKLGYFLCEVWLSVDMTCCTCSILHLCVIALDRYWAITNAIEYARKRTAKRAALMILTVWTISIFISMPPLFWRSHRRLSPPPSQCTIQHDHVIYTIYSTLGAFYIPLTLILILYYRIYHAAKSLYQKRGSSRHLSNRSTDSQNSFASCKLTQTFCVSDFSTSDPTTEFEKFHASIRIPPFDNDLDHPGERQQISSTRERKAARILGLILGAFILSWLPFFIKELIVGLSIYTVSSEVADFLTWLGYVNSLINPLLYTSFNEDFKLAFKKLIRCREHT
Sequence of 5-hydroxytryptamine receptor 2B (P41595 whole entry): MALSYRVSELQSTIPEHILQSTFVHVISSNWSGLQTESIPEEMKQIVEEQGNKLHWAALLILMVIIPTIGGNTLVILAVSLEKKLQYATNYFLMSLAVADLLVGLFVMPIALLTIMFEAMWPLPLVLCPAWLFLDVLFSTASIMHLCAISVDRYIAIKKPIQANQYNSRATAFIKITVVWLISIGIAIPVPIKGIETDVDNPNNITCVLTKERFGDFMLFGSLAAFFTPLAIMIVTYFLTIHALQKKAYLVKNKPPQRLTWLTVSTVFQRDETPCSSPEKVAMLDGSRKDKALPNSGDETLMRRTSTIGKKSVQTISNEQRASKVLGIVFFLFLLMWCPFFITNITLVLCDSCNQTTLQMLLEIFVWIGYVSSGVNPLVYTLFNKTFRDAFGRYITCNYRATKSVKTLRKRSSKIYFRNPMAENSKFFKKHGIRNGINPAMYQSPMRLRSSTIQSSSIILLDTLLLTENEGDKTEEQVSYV

In the case of `CC1CCN(CC[C@H]2CCCN2S(=O)(=O)c2cccc(Br)c2)CC1` [(R)-1-(2-(1-(3-bromo-benzenesulfonyl)-pyrrolidin-2-yl)-ethyl)-4-methyl piperidine], the Ki came out at 2.51 µM in test [1]; 1.58 µM in test [2]; 6.31 µM in test [3]; 5.01 µM in test [4]; 5.01 µM in test [5].
As to `Cc1cccc(S(=O)(=O)N2CCC[C@@H]2CCN2CCC(C)CC2)c1` [(R)-4-Methyl-1-(2-(1-toluene-3-sulfonyl)-pyrrolidin-2-yl)-ethyl)-piperidine (Oxalate salt)], the Ki was more than 10 µM in test [1], 2.51 µM in test [2], more than 10 µM in test [3] and more than 10 µM in test [4].
Consider `COc1cccc(S(=O)(=O)N2CCC[C@@H]2CCN2CCC(C)CC2)c1` [(R)-1-(2-(1-(3-methoxy-benzenesulfonyl)-pyrrolidin-2-yl)-ethyl-4-methylpiperidine], for which the Ki in test [6] is more than 10 µM.
In the case of `CC1CCN(CC[C@H]2CCCN2S(=O)(=O)c2cccc(O)c2)CC1` [(R)-3-(2-(2-(4-methylpiperidin-1-yl)ethyl)pyrrolidine-1-sulfonyl)phenol], the inhibition constant (Ki) in test [7] is more than 10 µM; in test [4] it was 3.16 µM.
On to `CC1CCN(CC[C@H]2CCCN2S(=O)(=O)c2cccc3ccccc23)CC1` [(R)-4-Methyl-1-(2-(1-(naphthalene-1-sulfonyl)-pyrrolidin-2-yl)-ethyl)-piperidine(10)], for which the Ki in test [1] and in test [4] was more than 10 µM throughout.
`CC1CCN(CC[C@H]2CCCN2S(=O)(=O)c2ccc(Cl)c(Cl)c2)CC1` [(R)-1-(2-(1-(3,4-Dichloro-benzenesulfonyl)-pyrrolidin-2-yl)-ethyl)-4-methyl piperidine]: the Ki in test [3] and in test [4] was 3.16 µM in each case.

The record behind these values is BindingDB's records for doi:10.1021/jm991151j (Smithkline Beecham Pharmaceuticals, 2000).
